Measured values: publication PMC11232401, “Characterization of antimalarial activity of artemisinin-based hybrid drugs” (Antimicrobial Agents and Chemotherapy, 2024)
Like-named read-outs stand apart in the source and are kept apart here. One block for each compound: values may come before it.

Legend:
P. falciparum 3D7 strain = tested on: P. falciparum 3D7 strain; design: method as in PMID 31290221, PMID 34832911, PMID 38559731; conditions: asynchronous culture, SYBR Green I; read-out: IC50 (nM, median ± SEM) for P. falciparum 3D7 strain; cited from earlier work
P. berghei-infected mice = tested on: P. berghei-infected mice; design: method as in PMID 31290221, PMID 34832911, PMID 38559731; conditions: Peters test; cited from earlier work
P. falciparum Dd2 strain = tested on: P. falciparum Dd2 strain; design: method as in PMID 31290221, PMID 34832911, PMID 38559731; conditions: asynchronous culture, SYBR Green I; read-out: IC50 (nM, median ± SEM) for P. falciparum Dd2 strain; cited from earlier work
P. falciparum = test: Parasite growth inhibition (cell potency); type: cell-based; conditions: Plasmodium falciparum; strain and exposure not stated at the place
[1] = tested on: heme (iron II)-initiated β-hematin formation; test: β-hematin inhibitory activity under reducing condition (R-BHIA); type: biochemical; conditions: mean (95% CI)
Method: The compounds were dissolved in DMSO and diluted in DMSO to six different concentrations (1.0–32 mM). Hemin (Fe^III[PPIX]Cl) (BioXtra, Sigma-Aldrich) was first dissolved in 0.1 M NaOH and then suspended in an 80:20 vol/vol mixture of DMSO and propionate buffer (0.1 M, pH 5.6) to a stock solution at 8 mM. Reduced glutathione (GSH) was dissolved in 0.1 M NaOH and then adjusted to 10 mM using propionate buffer (0.1 M, pH 5.6). […] Then, 20 µL of the drug was added, and the plates were incubated for 2 h at 37°C. The plastic film was removed after drug incubation, 160 µL propionate buffer (1.0 M, pH 5.6) was added, and plates were incubated for 18 h at 37°C. BHIA under the oxidizing condition (O-BHIA) was prepared in parallel without adding GSH. Controls included wells without drugs and wells containing PBS 1× instead of propionate buffer. Afterward, the plates were centrifuged, the supernatant was discarded, and the pellets of β-hematin crystals were washed twice with pure DMSO and then water. The resulting β-hematin crystals were then dissolved in 200 µL 0.1 M NaOH and diluted to a 1:8 ratio. Aliquots were then transferred into a new plate and read by UV-visible absorbance at […]. Percent of BHIA was calculated in comparison to untreated wells (no drugs), and IC50 was then calculated. Two independent experiments were performed using three replicates of each drug concentration ([46]).
(§1) Figure S6: A summary of IC50 values derived from β-hematin inhibitory activity (BHIA). Footnotes for table: ^[a,b^] Values are mean and 95% confidence interval of one experiment, each concentration in triplicate. ^[a] Using heme (Fe[II]PPIX[Cl]) as a starting reagent. ^[b] Using hematin (Fe[III]PPIX[OH]) as a starting reagent. ^[c] […] CQ = chloroquine. R-BHIA = reducing β-hematin inhibitory activity. O-BHIA = oxidizing β-hematin inhibitory activity.

[2] = tested on: Ring stages of NF54 strain P. falciparum; test: Antiplasmodial activity of drug combinations (pLDH, isobologram/FIC); type: cell-based; conditions: Plasmodium falciparum, mean (95% CI), tested in parallel with the combination of the same line
Method: The activity of the drug combinations against the P. falciparum NF54 strain was determined as described above. In each experiment, drugs were tested alone and in combination. Twofold serial dilutions of the drug solutions were made using fixed molar ratios of 1:1, 1:3, and 3:1 for each combination and using two technical replicates (ranging from 200 to 1.0 nM). Parasite growth was determined by the pLDH method, as described above. IC50 values for each drug alone or in combination were determined, and an isobologram analysis was performed by plotting the fractional inhibitory concentrations (FIC) for each combination and its component drugs separately. Individual FIC values were calculated as the IC50 of the drug combination divided by the IC50 of the drug in isolation. A dashed line was plotted to indicate any additive effect and distinguish antagonism (above the dashed line) from synergism (below the dashed line). Three independent experiments were performed, each one containing two replicates. Each experiment was used to represent an isobologram analysis [mean and 95% confidence interval (CI)].
Values represent one experiment; each concentration of drug combination was tested in technical duplicate. Black dashed line indicates ΣFIC = 1 (absolute additivity). […] FIC index <1 is synergistic, ~1 is additive, and >1 is antagonistic. Nondetrimental interactions are 0.25 <ΣFIC <1.25.
^[a] Values are the mean and 95% confidence interval of one experiment for each concentration of compounds in duplicate.

[3] = tested on: hematin (iron III)-initiated β-hematin formation; test: β-hematin inhibitory activity under oxidizing condition (O-BHIA); type: biochemical; conditions: hematin as starting reagent; mean (95% CI)
Method: The compounds were dissolved in DMSO and diluted in DMSO to six different concentrations (1.0–32 mM). Hemin (Fe^III[PPIX]Cl) (BioXtra, Sigma-Aldrich) was first dissolved in 0.1 M NaOH and then suspended in an 80:20 vol/vol mixture of DMSO and propionate buffer (0.1 M, pH 5.6) to a stock solution at 8 mM. Reduced glutathione (GSH) was dissolved in 0.1 M NaOH and then adjusted to 10 mM using propionate buffer (0.1 M, pH 5.6). For β-hematin inhibitory activity (BHIA) under the reducing condition (R-BHIA), hemin (10 µL) and GSH (10 µL) were distributed in a 96-well plate and homogenized, and the plates were sealed using a thin plastic film and incubated for 1 h at 37°C. Then, 20 µL of the drug was added, and the plates were incubated for 2 h at 37°C. The plastic film was removed after drug incubation, 160 µL propionate buffer (1.0 M, pH 5.6) was added, and plates were incubated for 18 h at 37°C. BHIA under the oxidizing condition (O-BHIA) was prepared in parallel without adding GSH. Controls included wells without drugs and wells containing PBS 1× instead of propionate buffer. Afterward, the plates were centrifuged, the supernatant was discarded, and the pellets of β-hematin crystals were washed twice with pure DMSO and then water. The resulting β-hematin crystals were then dissolved in 200 µL 0.1 M NaOH and diluted to a 1:8 ratio. Aliquots were then transferred into a new plate and read by UV-visible absorbance at […]. Percent of BHIA was calculated in comparison to untreated wells (no drugs), and IC50 was then calculated. Two independent experiments were performed using three replicates of each drug concentration ([46]).
as §1

[4] = tested on: ring stages of NF54 strain of P. falciparum; test: Exposure time dependence in drug activity (pLDH); type: cell-based; conditions: Plasmodium falciparum
Method: Each well of 96-well plates was filled with 100 µL drug and 100 µL culture containing ring-stage P. falciparum (NF54 strain) parasites, which were mixed to obtain a final parasitemia of 1.0% to 1.5% and 1.0% hematocrit. Plates were incubated at 37°C in a standard gas mixture. After 3 h and 6 h, plates were centrifuged, cell pellets were washed as described above then returned to the incubator for an additional 69 h and 66 h, respectively. In parallel, the same experiment was left without the washing step, enabling continuous drug exposure throughout. Plates were processed using the pLDH method, and IC50 values were calculated as described above. Three independent experiments were performed using two technical replicates.
Figure S2: Exposure time dependence of antiparasitic activity against ring stages of CQ-sensitive strain NF54 of P. falciparum. Data associated to Figure 2B in the main text of the manuscript. Footnotes for table: ^[a] Synchronized ring-stage parasites were incubated in the presence of compounds at indicated times, drugs were removed by washing, and plates were incubated until 72 h.^[b] Parasites were incubated in the presence of compounds for 72 h. ^[a,b^] Experiments were performed in parallel (paired). Parasite viability was determined by parasite lactate dehydrogenase (pLDH) assay. Data are from three experiments performed in duplicate.^ [c] […] MFQ = mefloquine. DHA = dihydroartemisinin; SEM = standard error of the mean; N.S. = not statistically significant.

[5] = tested on: NF54 strain of P. falciparum; test: Ring-stage-specific drug activity (pLDH); type: cell-based; conditions: Plasmodium falciparum, median ± SEM
Method: Each compound was dissolved in dimethyl sulfoxide (DMSO) and diluted in RPMI-1640 medium into seven different concentrations, which were tested against CQ-susceptible strains (NF54 or D10) or a CQ-resistant strain (W2). Each well of 96-well plates was filled with 100 µL drug and 100 µL parasitized RBC (asynchronous parasite culture), which were mixed to obtain a final parasitemia of 1.0% to 1.5% and 1.0% hematocrit. Plates were incubated for 72 h at 37°C in a standard gas mixture; then, parasite growth was determined by measuring the activity of the parasite lactate dehydrogenase (pLDH) ([38]). Briefly, at the end of incubation, the cultures were carefully resuspended, and 20 µL aliquots were removed and added to 100 µL Malstat reagent in a 96-well microplate. The Malstat reagent is made of 0.125% TritonX-100, 130 mM L-lactate, 30 mM Tris buffer, and 0.62 µM 3-acetylpyridine adenine dinucleotide. After that, 20 µL 1.9 µM nitro blue tetrazolium (NBT) and 0.24 µM phenazine ethyl sulfate were added to the plate. NBT was reduced to blueformazan and spectrophotometrically read at OD 650 nm using a Synergy 4 microplate reader (BioTek, Santa Clara, USA). […] IC50 values were expressed as means of two to three independent experiments, with each drug concentration in duplicate.
The NF54 strain of P. falciparum was employed to test the drugs’ activity against ring stages and asynchronous parasite culture (all stages). The ring stages were obtained by synchronization with D-Sorbitol using a standard method ([39]). Each well of 96-well plates was filled with 100 µL each drug and 100 µL culture containing ring-stage or asynchronous parasites, which were mixed to obtain a final parasitemia of 1.0% to 1.5% and 1.0% hematocrit. […] Plates were processed using the pLDH method, and IC50 values were calculated as described above. At least two to three independent experiments were performed, using two technical replicates.
^[a] Synchronized ring-stage parasites were incubated in the presence of compounds for 6 h, drugs were removed by washing, and plates were incubated for an additional 66 h. ^[b] Asynchronous parasites were incubated in the presence of compounds for 6 h, drugs were removed by washing, and plates were incubated for an additional 66 h. ^[c] Asynchronous parasites were incubated in the presence of compounds for 72 h. ^[a,b^] Experiments were performed in parallel. ^[d] […] Parasite viability was determined by parasite lactate dehydrogenase. Data are from three experiments performed in duplicate. MFQ = mefloquine; DHA = dihydroartemisinin; SEM = standard error of the mean.

[6] = in vivo; cited from earlier work

SMILES: C[C@@H]1CC[C@H]2[C@@H](C)C(=O)O[C@@H]3O[C@@]4(C)CC[C@@H]1[C@]32OO4 [ART, artemisinin]
IC50 (P. falciparum 3D7 strain): 26.8 ± 2.4 nM
In vivo parasitemia reduction (%) (P. berghei-infected mice): 78.5 ± 9.0%
IC50 (P. falciparum Dd2 strain): 11.3 ± 1.8 nM

SMILES: CCN(CC)CCCC(C)Nc1ccnc2cc(Cl)ccc12 (stereo not drawn) [CQ, chloroquine, reference compound]
IC50 (P. falciparum): 14.5 nM
IC50 ([1]; reductive step 10 minutes, read-out: IC50 (µM) values of R-BHIA using heme (iron II), 10 minutes): 189 µM
IC50 ([1]; reductive step 120 minutes, read-out: IC50 (µM) values of R-BHIA using heme (iron II), 120 minutes): 222 µM
IC50 (P. falciparum 3D7 strain): 12.7 ± 2.5 nM
IC50 ([2]; NF54, read-out: IC50, Drugs alone, ring stages NF54): 10.4 nM
IC50 (P. falciparum Dd2 strain): 165 ± 16 nM
IC50 [3]: 228 µM

IC50 ([2]; NF54, ring stages NF54, read-out: IC50, Drugs alone): 17 nM
IC50 ([4]; NF54, 6 h drug pulse, wash, incubated until 72 h, median ± SEM, read-out: IC50, 6 h + 66 h): 37.2 ± 5.2 nM
IC50 ([4]; NF54, 72 h continuous drug, median ± SEM, read-out: IC50, 72 h): 10.3 ± 2.6 nM
IC50 ([4]; NF54, read-out: IC50, 3 h + 69 h, 3 h drug pulse, wash, incubated until 72 h, median ± SEM): > 600 nM
IC50 ([5]; asynchronous parasites, 6 h drug, wash, additional 66 h, read-out: IC50, Asynchronous): 61.6 ± 11.9 nM
IC50 ([5]; asynchronous parasites, 72 h continuous drug, read-out: IC50, 72 h): 20.2 ± 1.3 nM
IC50 ([5]; synchronized ring stages, 6 h drug, wash, additional 66 h, read-out: IC50, Ring stages): 37.2 ± 5.2 nM
SMILES: OC(c1cc(C(F)(F)F)nc2c(C(F)(F)F)cccc12)C1CCCCN1 (stereo not drawn) [MFQ, mefloquine, reference compound]

SMILES: CC(C)(N)CNC(=O)C[C@H]1CC[C@]2(CC1)OO[C@]1(O2)C2CC3CC(C2)CC1C3 [OZ277]
half-life (t1/2) [6]: 2 to 4 h
